According to patent publication US20100317052A1, “PROCESS FOR DETECTING HELICOBACTER PYLORI USING ALIPHATIC AMIDES” (priority 2006, published 2010):

Tests used:
[1] = system: H. pylori; assay: Formation of carboxylic acid from aliphatic amide in H. pylori enriched liquid culture, SPME of vapor phase and GC-MS (SIM); type: cell-based, Helicobacter pylori; conditions: for formation of the respective acid in the vapor phase: amide added to medium containing H. pylori (collection cultures and clinical isolates), GC-MS
Protocol: In vitro ex vivo experimental tests were carried out in H. pylori cultures from collections and clinical isolates. […] The experimental tests were performed in vitro ex vivo in H. pylori cultures from collection and clinical isolates enriched in liquid medium (F12) under microaerophilic conditions. These compounds were administrated as diluted aqueous solutions (0.5 mL) to the liquid culture media (25 mL), 120 mL glass flasks hermetically sealed and encapsulated with a cap containing a septum. The collection of the acids that were formed after the amide administration described in 1 was carried out after acidification of the medium with acid tartaric (mimetizing the stomach's pH) and exposing to the flask's vapor phase for 5 minutes at 37° C. a solid-phase microextraction fiber (SPME) coated with carbowax/divinilbenzene (65 μm thickness). The search in vapor phase for the carboxylic acids generated by the bacterium's aliphatic amidases activity on the amides administrated was carried out by means of gas chromatography using a capillary column of intermediate polarity. The detection was performed by mass spectrometry comprising 3 scan cycles with selective ion monitoring (SIM) the m/z=74 for the propionic acid and m/z=88 for butyric acid.

[2] = Amide incubated in flask comprising only the medium, without any bacteria addition, SPME GC-MS; type: physicochemical; conditions: 0.5 mL of 20 mM solution, 60 minutes incubation at 37° C.
Protocol: These compounds were administrated as diluted aqueous solutions (0.5 mL) to the liquid culture media (25 mL), 120 mL glass flasks hermetically sealed and encapsulated with a cap containing a septum.
The collection of the acids that were formed after the amide administration described in 1 was carried out after acidification of the medium with acid tartaric (mimetizing the stomach's pH) and exposing to the flask's vapor phase for 5 minutes at 37° C. a solid-phase microextraction fiber (SPME) coated with carbowax/divinilbenzene (65 μm thickness).
The search in vapor phase for the carboxylic acids generated by the bacterium's aliphatic amidases activity on the amides administrated was carried out by means of gas chromatography using a capillary column of intermediate polarity.
The detection was performed by mass spectrometry comprising 3 scan cycles with selective ion monitoring (SIM) the m/z=74 for the propionic acid and m/z=88 for butyric acid.

SMILES	chromatographic area corresponding to the butyric acid ([1]; 0.5 mL of 20 mM solution, medium enriched with H. pylori, 60 minutes incubation at 37° C., vapor phase SPME GC-MS m/z=88)	formation of the respective acid in the vapor phase [1]	chromatographic peak corresponding to butyric acid [2]	chromatographic area corresponding to the propanoic acid ([1]; 0.5 mL of 20 mM solution, medium enriched with H. pylori, 60 minutes incubation at 37° C., vapor phase SPME GC-MS m/z=74)	chromatographic peak corresponding to propanoic acid [2]
CCCC(N)=O [butyramide]	6.5×10^5	the formation of the respective acids takes place	did not derive any chromatographic peak	–	–
CCC(N)=O [propionamide]	–	the formation of the respective acids takes place	–	7.0×10^5	did not produce any chromatographic peak
